SMILES strings stand for the structures. Peptide text beside a SMILES is read from it. Bounds are passed on as bounds.

This experiment can be described thus: The concentration of compound required to prevent 50 percent of cells from adhering to MAdCAM-1.
`CC(=O)N[C@@H](CC(C)C)C(=O)N[C@@H](CC(=O)O)C(=O)N[C@H](C(N)=O)C(C)C` [(S)-3-((S)-2-Acetylamino-4-methyl-pentanoylamino)-N-((S)-1-carbamoyl-2-methyl-propyl)-succinamic acid] (Ac-Leu-Asp-Val-NH2): the IC50 – broadly, the concentration at which inhibition is half-maximal – was found to be 126 µM. The figure for `CC(=O)N[C@@H](CC(C)C)C(=O)N[C@@H](CC(=O)O)C(=O)N[C@H](C(N)=O)[C@@H](C)O` [(S)-3-((S)-2-Acetylamino-4-methyl-pentanoylamino)-N-((1S,2R)-1-carbamoyl-2-hydroxy-propyl)-succinamic acid] (Ac-Leu-Asp-Thr-NH2) is 276 µM; for `CC(=O)N[C@@H](CC(C)C)C(=O)NCC(CC(=O)O)S(=O)(=O)N[C@H](C(N)=O)[C@@H](C)O` (stereo partly drawn) [4-((S)-2-Acetylamino-4-methyl-pentanoylamino)-3-((S)-1-carbamoyl-2-(R)-hydroxy-propylsulfamoyl)-butyric acid] it is more than 500 µM; for `CC(=O)N[C@@H](CC(C)C)C(=O)NCC(CC(=O)O)S(=O)(=O)N[C@H](C(N)=O)C(C)C` (stereo partly drawn) [4-((S)-2-Acetylamino-4-methyl-pentanoylamino)-3-((S)-1-carbamoyl-2-methyl-propylsulfamoyl)-butyric acid] it is 219 µM.

Source of the values: BindingDB's records for doi:10.1016/S0960-894X(97)00090-5 (1997).
